Assay [1] deals with T1, Sodium/glucose cotransporter 1 (Homo sapiens, UniProt P13866).
T1 sequence (P13866 whole entry): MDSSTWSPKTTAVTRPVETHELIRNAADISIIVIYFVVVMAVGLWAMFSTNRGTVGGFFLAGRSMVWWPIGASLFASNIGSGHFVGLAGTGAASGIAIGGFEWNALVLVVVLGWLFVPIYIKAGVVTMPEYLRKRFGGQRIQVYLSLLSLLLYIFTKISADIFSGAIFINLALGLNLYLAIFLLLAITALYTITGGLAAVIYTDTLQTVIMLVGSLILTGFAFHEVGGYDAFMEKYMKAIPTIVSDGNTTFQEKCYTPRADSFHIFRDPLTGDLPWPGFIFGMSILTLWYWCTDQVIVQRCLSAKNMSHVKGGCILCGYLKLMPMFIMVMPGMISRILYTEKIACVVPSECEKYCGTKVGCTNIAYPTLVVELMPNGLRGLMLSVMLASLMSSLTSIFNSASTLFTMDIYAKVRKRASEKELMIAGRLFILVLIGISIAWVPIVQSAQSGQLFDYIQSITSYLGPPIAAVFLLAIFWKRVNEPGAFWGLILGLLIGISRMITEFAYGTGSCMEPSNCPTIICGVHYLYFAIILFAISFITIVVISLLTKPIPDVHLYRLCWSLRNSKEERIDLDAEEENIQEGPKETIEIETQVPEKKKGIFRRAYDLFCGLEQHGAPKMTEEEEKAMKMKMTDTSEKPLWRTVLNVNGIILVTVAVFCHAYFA
Put plainly: (§1) In Vitro Assay: The inhibitory activity of the compounds of this invention against the SGLT-1 or SGLT-2 transporters.

Assay [2] deals with T2, Sodium/glucose cotransporter 2 (Homo sapiens, UniProt P31639).
T2 sequence (P31639 whole entry): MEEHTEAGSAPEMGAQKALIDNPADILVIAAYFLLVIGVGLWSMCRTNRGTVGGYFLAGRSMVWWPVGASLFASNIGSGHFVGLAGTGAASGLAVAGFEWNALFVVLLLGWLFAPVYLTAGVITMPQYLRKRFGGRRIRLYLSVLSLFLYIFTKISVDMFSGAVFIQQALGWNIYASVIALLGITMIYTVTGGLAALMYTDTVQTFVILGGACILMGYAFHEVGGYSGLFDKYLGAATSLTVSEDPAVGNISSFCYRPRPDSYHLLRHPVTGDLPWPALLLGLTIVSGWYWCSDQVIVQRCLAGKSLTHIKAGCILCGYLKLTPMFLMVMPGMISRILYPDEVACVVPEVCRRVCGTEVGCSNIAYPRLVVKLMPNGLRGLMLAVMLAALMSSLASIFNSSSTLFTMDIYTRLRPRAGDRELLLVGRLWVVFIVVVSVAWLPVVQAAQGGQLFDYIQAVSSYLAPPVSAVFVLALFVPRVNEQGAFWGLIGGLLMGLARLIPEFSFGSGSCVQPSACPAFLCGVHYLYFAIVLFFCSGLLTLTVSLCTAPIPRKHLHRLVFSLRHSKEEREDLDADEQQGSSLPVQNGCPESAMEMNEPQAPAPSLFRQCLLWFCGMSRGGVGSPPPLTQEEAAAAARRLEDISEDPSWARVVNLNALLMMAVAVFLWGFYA
Described as §1.

Results on two compounds are retold here after ChEMBL document CHEMBL3639005, “SGLT-2 inhibitors, methods of making them, and uses thereof” (2013).

Where only a bound is given, the exact number is not on record here.

Take `O=c1n(Cc2cc([C@@H]3O[C@H](CO)[C@@H](O)[C@H](O)[C@H]3O)ccc2Cl)nc2cc(Cl)ccn12`: the figures for the IC50 in assay [1] and in assay [2] were greater than 90 µM and 0.091 µM, respectively.
Taken in the same sequence, the figures for `N#CC1(c2ccc3nn(Cc4cc([C@@H]5O[C@H](CO)[C@@H](O)[C@H](O)[C@H]5O)ccc4Cl)c(=O)n3c2)CC1` were greater than 90 µM and 0.223 µM.
